Measured values: PubChem BioAssay (NCI)
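These data come from cells grown in 96-well plates and exposed to compound for 48 hours at five concentrations. TGI: concentration producing complete growth inhibition.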

Legend:
Experiment in all cases: NCI tumour cell line growth inhibition, 48 h
UO-31 renal = test system: UO-31 renal
SF-539 CNS = test system: SF-539 CNS
OVCAR-3 ovarian = test system: OVCAR-3 ovarian
MCF7 breast = test system: MCF7 breast
OVCAR-8 ovarian = test system: OVCAR-8 ovarian
NCI-H23 lung = test system: NCI-H23 lung
NCI-H460 lung = test system: NCI-H460 lung
MALME-3M melanoma = test system: MALME-3M melanoma
HOP-92 NSCLC = test system: HOP-92 NSCLC
HS 578T breast = test system: HS 578T breast
SF-295 CNS = test system: SF-295 CNS
COLO 205 colon = test system: COLO 205 colon
HOP-62 NSCLC = test system: HOP-62 NSCLC
K-562 leukemia = test system: K-562 leukemia
MDA-MB-231 breast = test system: MDA-MB-231 breast
HCC-2998 colon = test system: HCC-2998 colon
NCI-H522 lung = test system: NCI-H522 lung
SN12C renal = test system: SN12C renal
U251 CNS = test system: U251 CNS
HT29 colon = test system: HT29 colon
ACHN renal = test system: ACHN renal
SF-268 CNS = test system: SF-268 CNS
SNB-19 CNS = test system: SNB-19 CNS
A549 NSCLC = test system: A549 NSCLC
NCI-H226 lung = test system: NCI-H226 lung
HCT-15 colon = test system: HCT-15 colon
NCI/ADR-RES ovarian = test system: NCI/ADR-RES ovarian
OVCAR-4 ovarian = test system: OVCAR-4 ovarian
EKVX NSCLC = test system: EKVX NSCLC
UACC-257 melanoma = test system: UACC-257 melanoma
SW-620 colon = test system: SW-620 colon
MDA-MB-435 = test system: MDA-MB-435
SK-MEL-2 melanoma = test system: SK-MEL-2 melanoma
KM12 colon = test system: KM12 colon
SK-MEL-28 melanoma = test system: SK-MEL-28 melanoma
HL-60(TB) leukemia = test system: HL-60(TB) leukemia
TK-10 renal = test system: TK-10 renal
HCT-116 colon = test system: HCT-116 colon
OVCAR-5 ovarian = test system: OVCAR-5 ovarian
A498 renal = test system: A498 renal
UACC-62 melanoma = test system: UACC-62 melanoma
SK-OV-3 ovarian = test system: SK-OV-3 ovarian
PC-3 prostate = test system: PC-3 prostate
RPMI-8226 leukemia = test system: RPMI-8226 leukemia
M14 melanoma = test system: M14 melanoma
T-47D breast = test system: T-47D breast
786-0 renal = test system: 786-0 renal
MOLT-4 leukemia = test system: MOLT-4 leukemia
IGROV1 ovarian = test system: IGROV1 ovarian
CCRF-CEM leukemia = test system: CCRF-CEM leukemia
BT-549 breast = test system: BT-549 breast
RXF 393 renal = test system: RXF 393 renal
LOX IMVI melanoma = test system: LOX IMVI melanoma
DU-145 prostate = test system: DU-145 prostate
SNB-75 CNS = test system: SNB-75 CNS
SK-MEL-5 melanoma = test system: SK-MEL-5 melanoma
SR leukemia = test system: SR leukemia
CAKI-1 renal = test system: CAKI-1 renal

## C(/Cc1ccc2c(c1)OCO2)=N\NC1=NCCCCN1
UO-31 renal
  TGI: > 100 µM
SF-539 CNS
  TGI: > 100 µM
OVCAR-3 ovarian
  TGI: > 100 µM
MCF7 breast
  TGI: > 100 µM
OVCAR-8 ovarian
  TGI: > 100 µM
NCI-H23 lung
  TGI: > 100 µM
NCI-H460 lung
  TGI: > 100 µM
MALME-3M melanoma
  TGI: > 100 µM
HOP-92 NSCLC
  TGI: > 100 µM
HS 578T breast
  TGI: > 100 µM
SF-295 CNS
  TGI: > 100 µM
COLO 205 colon
  TGI: > 100 µM
HOP-62 NSCLC
  TGI: > 100 µM
K-562 leukemia
  TGI: > 100 µM
MDA-MB-231 breast
  TGI: > 100 µM
HCC-2998 colon
  TGI: > 100 µM
NCI-H522 lung
  TGI: > 100 µM
SN12C renal
  TGI: > 100 µM
U251 CNS
  TGI: > 100 µM
HT29 colon
  TGI: > 100 µM
ACHN renal
  TGI: > 100 µM
SF-268 CNS
  TGI: > 100 µM
SNB-19 CNS
  TGI: > 100 µM
A549 NSCLC
  TGI: > 100 µM
NCI-H226 lung
  TGI: > 100 µM
HCT-15 colon
  TGI: > 100 µM
NCI/ADR-RES ovarian
  TGI: > 100 µM
OVCAR-4 ovarian
  TGI: > 100 µM
EKVX NSCLC
  TGI: > 100 µM
UACC-257 melanoma
  TGI: > 100 µM
SW-620 colon
  TGI: > 100 µM
MDA-MB-435
  TGI: > 100 µM
SK-MEL-2 melanoma
  TGI: > 100 µM
KM12 colon
  TGI: > 100 µM
SK-MEL-28 melanoma
  TGI: > 100 µM
HL-60(TB) leukemia
  TGI: > 100 µM
TK-10 renal
  TGI: > 100 µM
HCT-116 colon
  TGI: > 100 µM
OVCAR-5 ovarian
  TGI: > 100 µM
A498 renal
  TGI: 91.4 µM
UACC-62 melanoma
  TGI: > 100 µM
SK-OV-3 ovarian
  TGI: > 100 µM
PC-3 prostate
  TGI: > 100 µM
RPMI-8226 leukemia
  TGI: > 100 µM
M14 melanoma
  TGI: 35.1 µM
T-47D breast
  TGI: > 100 µM
786-0 renal
  TGI: > 100 µM
MOLT-4 leukemia
  TGI: > 100 µM
IGROV1 ovarian
  TGI: > 100 µM
CCRF-CEM leukemia
  TGI: > 100 µM
BT-549 breast
  TGI: > 100 µM
RXF 393 renal
  TGI: > 100 µM
LOX IMVI melanoma
  TGI: > 100 µM
DU-145 prostate
  TGI: > 100 µM
SNB-75 CNS
  TGI: > 100 µM
SK-MEL-5 melanoma
  TGI: 58.2 µM
SR leukemia
  TGI: > 100 µM

## COc1ccc(NC(=S)Nc2cccc(C)n2)cc1
UO-31 renal
  TGI: > 100 µM
SF-539 CNS
  TGI: > 100 µM
MCF7 breast
  TGI: > 100 µM
OVCAR-8 ovarian
  TGI: > 100 µM
NCI-H23 lung
  TGI: > 100 µM
NCI-H460 lung
  TGI: > 100 µM
HOP-92 NSCLC
  TGI: > 100 µM
HS 578T breast
  TGI: > 100 µM
SF-295 CNS
  TGI: > 100 µM
COLO 205 colon
  TGI: > 100 µM
HOP-62 NSCLC
  TGI: 64.3 µM
K-562 leukemia
  TGI: > 100 µM
MDA-MB-231 breast
  TGI: > 100 µM
HCC-2998 colon
  TGI: > 100 µM
U251 CNS
  TGI: > 100 µM
HT29 colon
  TGI: > 100 µM
ACHN renal
  TGI: > 100 µM
SF-268 CNS
  TGI: > 100 µM
SNB-19 CNS
  TGI: > 100 µM
NCI-H226 lung
  TGI: > 100 µM
HCT-15 colon
  TGI: > 100 µM
NCI/ADR-RES ovarian
  TGI: > 100 µM
OVCAR-4 ovarian
  TGI: > 100 µM
EKVX NSCLC
  TGI: > 100 µM
UACC-257 melanoma
  TGI: > 100 µM
SW-620 colon
  TGI: > 100 µM
MDA-MB-435
  TGI: > 100 µM
SK-MEL-2 melanoma
  TGI: > 100 µM
KM12 colon
  TGI: > 100 µM
SK-MEL-28 melanoma
  TGI: > 100 µM
HL-60(TB) leukemia
  TGI: > 100 µM
TK-10 renal
  TGI: > 100 µM
HCT-116 colon
  TGI: > 100 µM
CAKI-1 renal
  TGI: > 100 µM
A498 renal
  TGI: > 100 µM
UACC-62 melanoma
  TGI: > 100 µM
SK-OV-3 ovarian
  TGI: > 100 µM
PC-3 prostate
  TGI: > 100 µM
RPMI-8226 leukemia
  TGI: > 100 µM
M14 melanoma
  TGI: > 100 µM
T-47D breast
  TGI: > 100 µM
786-0 renal
  TGI: > 100 µM
MOLT-4 leukemia
  TGI: > 100 µM
IGROV1 ovarian
  TGI: > 100 µM
CCRF-CEM leukemia
  TGI: > 100 µM
BT-549 breast
  TGI: > 100 µM
RXF 393 renal
  TGI: > 100 µM
LOX IMVI melanoma
  TGI: > 100 µM
DU-145 prostate
  TGI: > 100 µM
SNB-75 CNS
  TGI: > 100 µM
SK-MEL-5 melanoma
  TGI: > 100 µM
SR leukemia
  TGI: > 100 µM
